Values joined by “and” are separate entries in the source; they are usually repeats but may differ in a detail not shown here. Equal values may be shown once.
Columns and labels:
[1] = Urine Coc level of patient on codeine; type: in vivo, human; conditions: Table J, patient four
Protocol: (§1) Shown in FIG. 13 are mean nup values for codeine as a function of daily, total dose. […]. Her mean codeine level while stabilized on 90 mg of codeine qd, as shown on FIG. 13, should be 19,102 +/-3840 ng/ml.

[2] = in vivo
From the text: To determine compliance with the prescribed medication dose, random urine samples are obtained from the patient and analyzed in accordance with the invention as described in FIG. 9. […] The raw urine medication concentration (u) is next converted to a normalized urine medication concentration (nu) as discussed below. Over time, a normalized urine medication concentration-daily medication dose relationship is derived for each individual patient, which can be compared to the relationship expected for that particular patient. Alternatively, by adjusting the normalized urine medication concentration relative to the urinary pharmacokinetic parameters for each medication, a urinary-parameter normalized urine medication concentration (nup) may be calculated and compared to that expected for an average patient to determine compliance with the patient's prescribe medication dose.
nu=u'=u·(v/v')=u·UVPRF=u·(k1
The relationships for any medication family between nu and the medication pharmacokinetic parameters are empirically developed using regression analysis.
nup (patient body weight/k3)·u·UVPRF (19)
Two methods of interpreting urine medication results for compliance monitoring have now been developed. The first and most primitive method is to simply establish, using data from controls and compliant patients, mean drug levels and the expected ranges (minimums and maximums) for the nup of each particular medication at each particular daily, total dose amount.

[3] = Urine opiate concentration (codeine, oxycodone), urinary-parameter normalized; type: in vivo, human
Protocol: as §1
patient three is a person requiring opioid medications for severe arachnoiditis following surgery in the lumber spine. They were prescribed oxycodone without acetaminophen since they are status post removal of one kidney because of renal carcinoma. Shown in Table K are their oxycodone levels (40 mg per day total dose) which are within acceptable limits of 800-1600 ng/ml.

[4] = to deter illicit opioid use; past studies; cited from earlier work
[5] = Urine methadone concentration (FPIA) of maintenance patients, with calculated plasma methadone concentration and urinary-parameter normalized urine concentration
From the text: The unadulterated sample is next analyzed for raw urine methadone concentration, preferably using fluorescence polarization immunoassay (FPIA) technology. In this regard an Abbott TDX or ADX Analyzer may be profitably employed. Other standard analytical methods may also be used such as chromatography or other types of immunoassay. […]
where cl is renal clearance (ml/min), u is raw urine methadone concentration (ng/ml), v is the volume of urine collected in time (ml/min) or otherwise known as the urine volume production rate, and p is the measured plasma methadone concentration at the midpoint of the collection period (ng/ml).
Combining all of the above considerations, plasma methadone concentrations can be calculated by substituting Equations (2, 8, 9 and 10) in Equation (3): [formula] where values of u, specific gravity, and pH are known from previous test results on a patient's spot urine sample. The equation may be more generally expressed as follows: […]
p=k3 ·u·(k1 SGF-k2)/k4
FIG. 6 was developed by utilizing data from 8300 urine samples from 150 methadone maintenance patients on controlled daily methadone dosages.
The parameters of a patient's urine, such as pH and specific gravity, vary from one day to the next dependant upon the type and quantities of foods and beverages ingested. Additionally, individuals metabolizes these substances, as well as methadone, at different rates. To account for these variations, a urinary-parameter normalized urine methadone concentration, nup, is calculated that adjusts measured raw urine methadone concentration, u, in accordance with a prescribed methadone dose, urine specific gravity, patient's current body weight (lbs) and urine pH. The relationship between u, pH, dose and specific gravity was empirically developed using nonlinear regression analysis. […]
nup =(k3 /DOSE)^k4 ·(k5 /pH)^k6 […]
Given this value, another set of prediction equations specifying the allowable range for the next measured nup for a particular patient, given a sample size of n, a mean nup for an individual patient and either the patient standard deviation or the population standard deviation (whichever is least), can be calculated as shown in Hahn and Meeker. If the measured value is within the acceptable statistical range, given a previously calculated mean and standard deviation, then it is accepted. If the value is too high or too low, this is marked on the urine drug screen under the column called Pred, as shown in clinical cases #'s 4 and 5, Tables F and G.

[6] = Renal excretion rate in timed urine aliquots of compliant control subjects; type: in vivo, human; conditions: as function of urine volume production rate, during a typical day
migraine = test: Clinical cases: migraine in patients on methadone maintenance; type: in vivo, human
[7] = Plasma methadone calculated from spot urine versus measured plasma methadone (FIG. 7)
[8] = Table A, compliant patient, dose 60 mg/day, individual dates
[9] = Table A, compliant patient, dose 70 mg/day, individual dates
[10] = Table A, mean of 12 tests, 60-70 mg/day
[11] = Table B, patient one, dose 45 mg, individual dates
[12] = Table B, patient one, mean of 12 tests, 45 mg
[13] = Table C, patient two, mean of 12 tests, dose 40-100
[14] = Table D, patient two (barbiturates discontinued), dose 130
[15] = Table D, patient two, mean of 12 tests, dose 110-130
[16] = Table G, mean of 13 tests, dose 130
[17] = patient two, 130 mg per day methadone

In the case of `COC(=O)[C@H]1[C@@H](OC(=O)c2ccccc2)C[C@@H]2CC[C@H]1N2C` [Coc], the Coc [1] is reported as 0.
In the case of `Cc1nnc2n1-c1ccc(Cl)cc1C(c1ccccc1)=NC2` [alprazolam], the “Xanax level, mean” value ([2]; human) is reported as 4268 ng/mL, the “SD of alprazolam normalized concentration, % of mean” value [2] is reported as ~15% and the “SEE of nup = k*Dose” value [2] is reported as 210. The “importance of urine pH for nup” value [2] was “not important”.
For `COc1ccc2c3c1O[C@H]1[C@@H](O)C=C[C@H]4[C@@H](C2)N(C)CC[C@@]341` [codeine], the “mean codeine level (nup)” value ([3]; FIG. 13, patient four stabilized on 90 mg of codeine qd) was 19,102 +/-3840 ng/ml and the “Opi (nup, codeine), mean” value ([3]; Table J, patient four, mean of 9 tests, 90 mg codeine qd) was 19102 ng/mL.
For `CN1C(=O)CN=C(c2ccccc2)c2cc(Cl)ccc21` [diazepam], the “SEE of nup = k*Dose” value [2] was 806, the “importance of urine pH for nup” value [2] was “not important” and the “nup per daily dose (coefficient of nup = k*Dose)” value [2] was 267(SE 16.9).
In the case of `CCC(=O)C(CC(C)N(C)C)(c1ccccc1)c1ccccc1` (stereo not drawn) [methadone], the “optimum/necessary (24-hour trough) plasma methadone concentration” value [4] is given as 150 to 600 ng/mL, the “nup, urinary-parameter normalized urine methadone concentration” value [5, 8] is given as 7448 ng/mL and 9473 ng/mL and the “u, raw urine methadone concentration” value [5, 8] is given as 7049 ng/mL and 4935 ng/mL. The “nup, urinary-parameter normalized urine methadone concentration” value [5, 9] was 6966 ng/mL and 7381 ng/mL and 10913 ng/mL and 7430 ng/mL and 7208 ng/mL and 6254 ng/mL and 5532 ng/mL and 7790 ng/mL and 5852 ng/mL and 6881 ng/mL, the “u, raw urine methadone concentration” value [5, 9] was 6838 ng/mL and 6536 ng/mL and 5462 ng/mL and 5180 ng/mL and 7398 ng/mL and 5990 ng/mL and 4203 ng/mL and 8469 ng/mL and 3736 ng/mL and 5601 ng/mL and the “nup, mean” value [5, 10] was 7427 ng/mL. For the same compound, the “u, mean” value [5, 10] was 5950 ng/mL, the “nup, urinary-parameter normalized urine methadone concentration” value [5, 11] was 21153 ng/mL and 25720 ng/mL and 22145 ng/mL and 32208 ng/mL and 10174 ng/mL and 13051 ng/mL and 15585 ng/mL and 17845 ng/mL and 7585 ng/mL and 10815 ng/mL and 20168 ng/mL and 18777 ng/mL and the “u, raw urine methadone concentration” value [5, 11] was 1069 ng/mL and 1336 ng/mL and 2109 ng/mL and 1883 ng/mL and 646 ng/mL and 1246 ng/mL and 1285 ng/mL and 757 ng/mL and 4094 ng/mL and 1318 ng/mL and 3900 ng/mL and 915 ng/mL. The “nup, mean” value [5, 12] was 17265 ng/mL, the “u, mean” value [5, 12] was 1713 ng/mL and the “u, raw urine methadone concentration” value ([5]; Table C, patient two, dose 40) was 174 ng/mL and 296 ng/mL. For the same compound, the “nup, urinary-parameter normalized urine methadone concentration” value ([5]; Table C, patient two, dose 50) was 2924 ng/mL, the “u, raw urine methadone concentration” value ([5]; Table C, patient two, dose 50) was 853 ng/mL and the “nup, urinary-parameter normalized urine methadone concentration” value ([5]; Table C, patient two, dose 65) was 1367 ng/mL. The “nup, urinary-parameter normalized urine methadone concentration” value ([5]; Table C, patient two, dose 80) was 1070 ng/mL, the “u, raw urine methadone concentration” value ([5]; Table C, patient two, dose 80) was 1120 ng/mL and the “nup, mean” value [5, 13] was 1709 ng/mL. For the same compound, the “u, mean” value [5, 13] was 1456 ng/mL, the “nup, urinary-parameter normalized urine methadone concentration” value [5, 14] was 7728 ng/mL and 5944 ng/mL and 5117 ng/mL and the “u, raw urine methadone concentration” value [5, 14] was 4915 ng/mL and 6565 ng/mL and 9494 ng/mL. The “nup, urinary-parameter normalized urine methadone concentration” value ([5]; Table D, patient two, dose 110) was 6580 ng/mL and 6703 ng/mL and 10880 ng/mL and 6025 ng/mL, the “nup, urinary-parameter normalized urine methadone concentration” value ([5]; Table D, patient two, dose 120) was 8970 ng/mL and 6778 ng/mL and 8074 ng/mL and 11966 ng/mL and 6031 ng/mL and the “nup, mean” value [5, 15] was 7236 ng/mL. For the same compound, the “u, mean” value [5, 15] was 7036 ng/mL, the “Pred (flag: nup outside statistical range predicted for patient)” value ([5]; Table F, case #4, dose 140) was “High” and the “nup, mean” value ([5]; Table F, mean of 11 tests, dose 120-140) was 5130 ng/mL. For the same compound, the “u, mean” value ([5]; Table F, mean of 12 tests, dose 120-140) was 8008 ng/mL, the “Pred (flag: nup outside statistical range predicted for patient)” value ([5]; Table G, case #5, dose 130) was “LOW and HIGH” and the “nup, mean” value [5, 16] was 8396 ng/mL. The “u, mean” value [5, 16] was 10585 ng/mL, the “average population standard deviation of nup” value ([5]; acceptably compliant methadone patients) was “about 3000” and the “plasma methadone levels over time” value ([5]; patient two, Tables C and D, after discontinuing barbiturate-containing compounds) was “increased”. For the same compound, the “renal excretion rate (mg/min)” value [6] was “relatively constant”, the “migraine attacks during treatment” value (migraine; patient one, 36 months, 45 mg methadone) was 2 migraine attacks and the “frequency and severity of migraines” value (migraine; patient one, titration to 45 mg methadone) was “migraines slowly decayed in frequency and severity”. For the same compound, the “plasma methadone level related to migraine attacks” value (migraine; patient one, transient decrease after vomiting) was “below 80 ng/ml”, the migraine response (migraine; [17]) was “migraines ceased completely” and the “plasma methadone level at which migraines ceased completely” value (migraine; [17]) was “above 135 ng/ml”. For the same compound, the “adjusted squared multiple R, estimated versus measured plasma methadone concentration” value ([7]; FIG. 7) was 0.987 and the “slope, estimated versus measured plasma methadone concentration” value ([7]; FIG. 7, linear regression, intercept -1.25 (SE 11.495), F-ratio 810) was 0.970 (SE 0.034).
In the case of `Oc1ccc2c3c1O[C@H]1[C@@H](O)CC[C@@]4(O)[C@@H](C2)N(CC2CCC2)CC[C@]314` [nalbuphine], the “control of migraine pain” value (migraine; patient two, self-administered IM) is reported as “failure”.
In the case of `COc1ccc2c3c1O[C@H]1C(=O)CC[C@@]4(O)[C@@H](C2)N(C)CC[C@]314` [oxycodone], the “nup, Opi (oxycodone), mean” value ([3]; Table K, patient three, mean of 12 tests, 40 mg per day) is reported as 1206 ng/mL and the “oxycodone levels, acceptable limits” value ([3]; patient three, 40 mg per day total dose) is reported as 800 to 1600 ng/mL.
